Among the data in ChEMBL document CHEMBL5034001 (J Med Chem, 2021) are Activity, bioavailability and CLint scaled values, retold here.

Series [1] has as its system Receptor-type tyrosine-protein kinase FLT3 (Homo sapiens), P36888 [UNDEFINED MUTATION]. Briefly: Binding affinity to human partial length FLT3 ITD/D835V double mutant expressed in bacterial expression system assessed as residual binding level at 100 nM by Kinomescan method relative to control.
Series [2] deals with Focal adhesion kinase 1 (Homo sapiens) (UniProt Q05397). Briefly: Induction of FAK degradation in human MDA-MB-231 cells at 10 nM after 1 to 2 hrs by Western blot analysis. It is filed as cell-based. To be noted: time 1-2 hrs. A general note: Immunoblotting shows a protein as a band on a membrane.
Focal adhesion kinase 1 (Homo sapiens), sequence (Q05397 2-1052 limits assumed): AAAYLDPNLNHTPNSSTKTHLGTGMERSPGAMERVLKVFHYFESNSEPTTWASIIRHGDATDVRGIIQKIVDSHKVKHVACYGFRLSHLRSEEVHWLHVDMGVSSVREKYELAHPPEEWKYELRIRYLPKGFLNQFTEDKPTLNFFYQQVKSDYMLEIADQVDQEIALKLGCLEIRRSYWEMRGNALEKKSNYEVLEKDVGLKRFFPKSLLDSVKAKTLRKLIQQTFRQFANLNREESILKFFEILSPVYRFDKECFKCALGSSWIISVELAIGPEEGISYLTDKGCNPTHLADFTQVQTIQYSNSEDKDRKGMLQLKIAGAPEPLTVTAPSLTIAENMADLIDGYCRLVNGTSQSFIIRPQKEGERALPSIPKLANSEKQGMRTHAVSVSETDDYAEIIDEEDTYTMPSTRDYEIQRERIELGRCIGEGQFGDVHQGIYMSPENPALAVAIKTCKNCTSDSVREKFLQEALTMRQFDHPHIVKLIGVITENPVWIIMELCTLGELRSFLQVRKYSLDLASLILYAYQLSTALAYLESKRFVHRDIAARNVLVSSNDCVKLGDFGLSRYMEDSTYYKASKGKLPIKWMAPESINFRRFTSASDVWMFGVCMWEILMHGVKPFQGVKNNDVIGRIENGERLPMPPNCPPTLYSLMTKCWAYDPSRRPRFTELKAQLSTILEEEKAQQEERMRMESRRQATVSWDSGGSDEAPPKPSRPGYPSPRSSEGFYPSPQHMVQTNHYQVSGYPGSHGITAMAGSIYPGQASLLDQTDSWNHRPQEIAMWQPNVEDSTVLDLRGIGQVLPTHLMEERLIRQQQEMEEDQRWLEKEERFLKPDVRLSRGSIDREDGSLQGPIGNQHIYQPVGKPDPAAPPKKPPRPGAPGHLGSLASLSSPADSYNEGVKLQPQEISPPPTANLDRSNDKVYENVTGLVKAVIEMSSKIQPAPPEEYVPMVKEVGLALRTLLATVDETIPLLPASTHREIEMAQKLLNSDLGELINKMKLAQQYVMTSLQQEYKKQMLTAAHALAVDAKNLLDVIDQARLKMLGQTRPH
Series [3] can be described thus: Oral bioavailability in […] at 10 mg/kg measured upto 24 hrs. Conditions: in vivo. It is filed as ADME, organism-based.
In series [4] the target is T1, ALK tyrosine kinase receptor (Homo sapiens, UniProt Q9UM73). Put plainly: Induction of ALK degradation in human SR cells at 100 nM after 8 to 24 hrs by Western blot analysis. The series is classed as cell-based. Conditions: time 8-24 hrs.
T1 sequence (Q9UM73 19-1620 limits assumed): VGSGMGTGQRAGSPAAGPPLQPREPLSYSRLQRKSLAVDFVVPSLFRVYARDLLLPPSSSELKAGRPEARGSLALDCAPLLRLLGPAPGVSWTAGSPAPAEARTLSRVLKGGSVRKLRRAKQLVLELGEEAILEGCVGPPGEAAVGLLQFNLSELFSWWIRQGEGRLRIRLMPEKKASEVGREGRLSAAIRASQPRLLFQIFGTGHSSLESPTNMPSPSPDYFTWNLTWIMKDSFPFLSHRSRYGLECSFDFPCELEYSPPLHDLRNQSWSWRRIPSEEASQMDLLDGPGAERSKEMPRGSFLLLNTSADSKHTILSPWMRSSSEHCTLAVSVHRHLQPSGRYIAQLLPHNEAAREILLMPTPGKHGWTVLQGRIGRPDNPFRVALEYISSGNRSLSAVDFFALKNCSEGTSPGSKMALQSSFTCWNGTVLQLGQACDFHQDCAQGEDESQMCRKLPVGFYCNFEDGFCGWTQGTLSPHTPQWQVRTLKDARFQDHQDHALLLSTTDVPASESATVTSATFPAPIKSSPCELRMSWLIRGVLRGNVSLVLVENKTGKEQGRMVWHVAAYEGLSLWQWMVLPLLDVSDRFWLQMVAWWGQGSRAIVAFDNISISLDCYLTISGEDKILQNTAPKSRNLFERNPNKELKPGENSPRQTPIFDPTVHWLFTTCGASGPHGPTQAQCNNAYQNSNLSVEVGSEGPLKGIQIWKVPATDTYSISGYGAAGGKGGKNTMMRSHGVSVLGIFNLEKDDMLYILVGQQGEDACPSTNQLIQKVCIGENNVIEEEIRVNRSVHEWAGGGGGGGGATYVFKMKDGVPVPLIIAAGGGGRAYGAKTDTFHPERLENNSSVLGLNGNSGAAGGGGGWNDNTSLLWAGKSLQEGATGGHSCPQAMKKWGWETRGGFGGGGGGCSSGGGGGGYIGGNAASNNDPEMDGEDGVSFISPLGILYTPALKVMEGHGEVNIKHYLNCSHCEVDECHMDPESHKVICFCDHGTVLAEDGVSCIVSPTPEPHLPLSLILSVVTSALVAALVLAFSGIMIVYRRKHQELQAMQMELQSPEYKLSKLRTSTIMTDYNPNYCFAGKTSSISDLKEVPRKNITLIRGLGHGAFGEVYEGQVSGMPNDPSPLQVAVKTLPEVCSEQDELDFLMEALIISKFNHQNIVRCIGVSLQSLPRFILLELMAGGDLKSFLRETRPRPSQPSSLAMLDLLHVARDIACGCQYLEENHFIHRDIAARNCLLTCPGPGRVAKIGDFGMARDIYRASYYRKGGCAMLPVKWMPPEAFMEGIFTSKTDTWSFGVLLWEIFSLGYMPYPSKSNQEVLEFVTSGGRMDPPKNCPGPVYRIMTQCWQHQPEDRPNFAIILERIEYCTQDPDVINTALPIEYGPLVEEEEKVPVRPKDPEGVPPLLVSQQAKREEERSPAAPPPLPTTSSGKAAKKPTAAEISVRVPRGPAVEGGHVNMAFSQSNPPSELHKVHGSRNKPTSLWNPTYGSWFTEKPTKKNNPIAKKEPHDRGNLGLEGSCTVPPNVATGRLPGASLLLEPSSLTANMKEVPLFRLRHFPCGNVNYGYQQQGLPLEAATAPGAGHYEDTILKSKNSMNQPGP
In series [5] the test system is Receptor-type tyrosine-protein kinase FLT3 (Homo sapiens), P36888 [UNDEFINED MUTATION]. Put plainly: Binding affinity to human partial length FLT3 ITD/F691L double mutant expressed in bacterial expression system assessed as residual binding level at 100 nM by Kinomescan method relative to control.
Series [6] concerns Epidermal growth factor receptor (Homo sapiens), P00533 [L858R,T790M]. Briefly: Binding affinity to human partial length EGFR L858R/T790M double mutant (R669 to V1011 residues) expressed in mammalian expression system assessed as residual binding level at 100 nM by Kinomescan method relative to control.
For series [7], the target named is Focal adhesion kinase 1 (Homo sapiens) (UniProt Q05397). Put plainly: Induction of FAK degradation in human NCI-H2228 cells at 1 nM after 16 hrs by Western blot analysis. The series is classed as cell-based.
In a further series the target is EML4-ALK (Homo sapiens) (UniProt Q9UM73+Q9HC35). Put plainly: Induction of EML4-ALK degradation in human […] at 0.1 to 50 nM by Western blot analysis. The series is classed as cell-based. Conditions: dose 0.1-50 nM.
EML4-ALK (Homo sapiens), sequence (Q9HC35 whole entry partner): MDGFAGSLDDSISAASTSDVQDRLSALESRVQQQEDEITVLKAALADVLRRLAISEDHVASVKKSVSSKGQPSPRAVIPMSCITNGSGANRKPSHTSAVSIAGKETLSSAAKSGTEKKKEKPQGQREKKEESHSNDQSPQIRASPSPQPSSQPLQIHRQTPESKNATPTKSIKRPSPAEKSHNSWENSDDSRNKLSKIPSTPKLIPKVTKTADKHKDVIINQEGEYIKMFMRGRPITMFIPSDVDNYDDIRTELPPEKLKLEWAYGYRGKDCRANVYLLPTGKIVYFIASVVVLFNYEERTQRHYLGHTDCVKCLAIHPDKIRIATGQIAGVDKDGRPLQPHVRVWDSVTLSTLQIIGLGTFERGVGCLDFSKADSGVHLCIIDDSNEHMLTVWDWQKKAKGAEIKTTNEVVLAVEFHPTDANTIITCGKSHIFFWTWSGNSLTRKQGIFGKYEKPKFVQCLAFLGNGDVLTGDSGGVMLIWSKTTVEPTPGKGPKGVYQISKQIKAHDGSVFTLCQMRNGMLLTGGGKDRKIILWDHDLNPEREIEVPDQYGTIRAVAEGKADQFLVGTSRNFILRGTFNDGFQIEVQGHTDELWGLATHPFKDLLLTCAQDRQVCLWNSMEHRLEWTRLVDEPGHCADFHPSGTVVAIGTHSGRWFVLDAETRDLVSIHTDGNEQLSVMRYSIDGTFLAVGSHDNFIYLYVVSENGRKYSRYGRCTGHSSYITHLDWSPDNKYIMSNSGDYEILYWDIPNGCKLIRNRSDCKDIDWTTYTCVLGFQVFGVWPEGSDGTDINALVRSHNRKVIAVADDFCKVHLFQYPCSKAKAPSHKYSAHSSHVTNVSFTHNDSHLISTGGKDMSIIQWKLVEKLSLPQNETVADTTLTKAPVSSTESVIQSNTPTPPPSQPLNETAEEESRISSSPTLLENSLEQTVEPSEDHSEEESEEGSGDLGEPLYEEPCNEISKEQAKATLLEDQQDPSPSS
EML4-ALK (Homo sapiens), sequence (Q9UM73 19-1620 limits assumed): as the sequence (Q9UM73 19-1620 limits assumed) above
Series [8] has as its target T1, ALK tyrosine kinase receptor. Put plainly: Induction of ALK degradation in human SR cells at 100 nM pretreated with proteosome inhibitor MG132 for 4 hrs followed by compound addition and measured after 16 hrs by Western blot analysis. It is filed as cell-based.
Series [9] has as its target Leucine-rich repeat serine/threonine-protein kinase 2 (Homo sapiens) (UniProt Q5S007). Briefly: Binding affinity to wild-type human partial length LRRK2 (H970 to E2527 residues) expressed in mammalian expression system assessed as residual binding level at 100 nM by Kinomescan method relative to control.
The target of series [10] is Protein-tyrosine kinase 2-beta (Homo sapiens) (UniProt Q14289). Put plainly: Induction of PYK2 degradation in human MDA-MB-231 cells at 10 nM treated for 16 hrs followed by compound washout and measured after 48 hrs by Western blot analysis. It is filed as cell-based.
Protein-tyrosine kinase 2-beta (Homo sapiens), sequence (Q14289 whole entry, looked up, the tested form may be a part): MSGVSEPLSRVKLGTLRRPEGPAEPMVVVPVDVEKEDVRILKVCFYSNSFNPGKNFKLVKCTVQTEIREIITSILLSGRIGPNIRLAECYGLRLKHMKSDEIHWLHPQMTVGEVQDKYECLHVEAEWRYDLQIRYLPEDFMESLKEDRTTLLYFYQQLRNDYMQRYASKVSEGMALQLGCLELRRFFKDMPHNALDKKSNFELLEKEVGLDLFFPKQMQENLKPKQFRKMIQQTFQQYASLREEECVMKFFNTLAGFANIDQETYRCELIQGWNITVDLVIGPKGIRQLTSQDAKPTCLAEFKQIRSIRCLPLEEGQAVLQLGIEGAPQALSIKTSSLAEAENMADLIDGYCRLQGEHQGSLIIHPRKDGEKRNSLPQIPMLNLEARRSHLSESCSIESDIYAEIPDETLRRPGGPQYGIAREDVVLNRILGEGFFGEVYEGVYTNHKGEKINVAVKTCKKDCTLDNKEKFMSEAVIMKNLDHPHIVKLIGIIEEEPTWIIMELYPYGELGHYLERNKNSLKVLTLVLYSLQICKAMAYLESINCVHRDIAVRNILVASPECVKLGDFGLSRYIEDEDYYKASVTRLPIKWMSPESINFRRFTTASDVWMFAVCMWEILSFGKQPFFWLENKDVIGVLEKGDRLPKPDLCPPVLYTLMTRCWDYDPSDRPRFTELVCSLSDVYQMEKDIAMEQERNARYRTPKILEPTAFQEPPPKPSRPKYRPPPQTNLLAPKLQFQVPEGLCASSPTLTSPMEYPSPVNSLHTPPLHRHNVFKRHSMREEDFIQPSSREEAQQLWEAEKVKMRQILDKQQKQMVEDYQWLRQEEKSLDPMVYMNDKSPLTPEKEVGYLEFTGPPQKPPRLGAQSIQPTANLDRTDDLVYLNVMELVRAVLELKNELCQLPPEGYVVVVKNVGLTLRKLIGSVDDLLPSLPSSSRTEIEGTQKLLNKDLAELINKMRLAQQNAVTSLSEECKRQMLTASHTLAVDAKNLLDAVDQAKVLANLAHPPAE
Series [11] concerns the target Focal adhesion kinase 1 (Homo sapiens) (UniProt Q05397). Briefly: Binding affinity to wild-type human partial length FAK (D402 to R696 residues) expressed in bacterial expression system assessed as residual binding level at 100 nM by Kinomescan method relative to control.
In series [12] the test system is Receptor-type tyrosine-protein kinase FLT3 (Homo sapiens), P36888 [D835Y]. Put plainly: Binding affinity to human partial length FLT3 D835Y mutant (Q580 to Y969 residues) expressed in bacterial expression system assessed as residual binding level at 100 nM by Kinomescan method relative to control.
Series [13] deals with T1, ALK tyrosine kinase receptor. Briefly: Induction of ALK degradation in human SR cells at 100 nM incubated with compound for 24 hrs followed by compound washout and measured upto 72 hrs by Western blot analysis. The series is classed as cell-based.
For series [14], the target named is NPM/ALK (Nucleophosmin/ALK tyrosine kinase receptor) (Homo sapiens) (UniProt Q9UM73+P06748). Put plainly: Induction of NPM-ALK degradation in human SR cells at 0.1 to 50 nM by Western blot analysis. To be noted: dose 0.1-50 nM. The series is classed as cell-based.
NPM/ALK (Nucleophosmin/ALK tyrosine kinase receptor) (Homo sapiens), sequence (P06748 whole entry partner): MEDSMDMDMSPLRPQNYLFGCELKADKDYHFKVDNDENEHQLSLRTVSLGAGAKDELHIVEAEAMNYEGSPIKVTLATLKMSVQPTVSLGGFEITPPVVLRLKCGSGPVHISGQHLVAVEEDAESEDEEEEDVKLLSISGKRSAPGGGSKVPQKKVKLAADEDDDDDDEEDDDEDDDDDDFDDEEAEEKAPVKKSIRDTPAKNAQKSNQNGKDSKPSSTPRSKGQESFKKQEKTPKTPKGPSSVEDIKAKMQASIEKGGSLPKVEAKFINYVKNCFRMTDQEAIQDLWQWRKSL
NPM/ALK (Nucleophosmin/ALK tyrosine kinase receptor) (Homo sapiens), sequence (Q9UM73 19-1620 limits assumed): as the sequence (Q9UM73 19-1620 limits assumed) above
A further series has as its system NCI-H2228. Put plainly: Down regulation of RSK1 in human NCI-H2228 cells at 1 to 1000 nM after 16 hrs by Western blot analysis. The series is classed as functional, cell-based. Conditions: dose 1-1000 nM.
Series [15] addresses Dual specificity protein kinase CLK1 (Homo sapiens) (UniProt P49759). Briefly: Binding affinity to wild-type human full length CLK1 (M1 to I484 residues) expressed in bacterial expression system assessed as residual binding level at 100 nM by Kinomescan method relative to control.
The subject of series [16] is Epidermal growth factor receptor (Homo sapiens), P00533 [UNDEFINED MUTATION]. Put plainly: Binding affinity to human partial length EGFR L747-E749del/A750P mutant expressed in bacterial expression system assessed as residual binding level at 100 nM by Kinomescan method relative to control.
For another series, the system named is SR. Put plainly: Down regulation of PYK2 in human SR cells at 0.1 to 1000 nM after 16 hrs by Western blot analysis. The series is classed as functional, cell-based. Conditions: dose 0.1-1000 nM.
Series [17] relates to Receptor-type tyrosine-protein kinase FLT3 (Homo sapiens), P36888 [UNDEFINED MUTATION]. Put plainly: Binding affinity to human partial length FLT3 ITD mutant expressed in bacterial expression system assessed as residual binding level at 100 nM by Kinomescan method relative to control.
The next series has as its system MDA-MB-231. Put plainly: Down regulation of cyclin D1 protein expression in human MDA-MB-231 cells at 1 to 500 nM after 48 hrs by Western blot analysis. To be noted: dose 1-500 nM. The series is classed as functional, cell-based.
Series [18] can be described thus: Metabolic stability in human liver microsomes assessed as intrinsic clearance preincubated for 10 mins followed by NADPH regenerating system addition and measured after 10 mins by LC-MS/MS analysis. The series is classed as ADME, Microsome. Conditions: time 20 min, read-out: CLH.

Each structure is given as a SMILES string. Active and inactive are the calls of the source. The rule behind the calls is not given here.

By bioavailability is commonly meant dose-corrected exposure relative to a reference, in per cent. For the compound `COc1cc(N2CCC(N3CCN(C(=O)CNc4cccc5c4C(=O)N(C4CCC(=O)NC4=O)C5=O)CC3)CC2)ccc1Nc1ncc(Cl)c(Nc2ccccc2P(C)(C)=O)n1` (configuration not stated), the Activity in series [1] was determined as 1%; in series [5], 0%; in [6] it was 3.5%; in series [9], 0%; in [11], 2.5%; in [12], 8.2%. The Activity in series [15] came out at 3.8%; in series [16], 6.9%; in series [17] it was 3%. For the same compound, the result (in series [2]; in series [4]; in series [7]; on EML4-ALK (Homo sapiens); in series [13]; in series [14]) was Active. In addition, the outcome with NCI-H2228, with SR and in the series with MDA-MB-231 was Active. Further, the bioavailability in series [3] was determined as 18.4%. For the same compound, the outcome in series [8] and in series [10] was inactive. Besides, the CLint scaled in series [18] amounted to 22.6 mL/min/kg.
